The record followed here is patent publication US10251892B2, “Bicyclic heterocycles as FGFR4 inhibitors” (Incyte Corporation, priority 2015, dated 2019).

The target of the assay is FGFR3 enzyme (Homo sapiens (Human), UniProt P22607). Kind of assay: FGFR Enzymatic Assay (peptide phosphorylation, FRET), FGFR3. The assay is classed as biochemical. The note with it: IC50 ratio showing FGFR3 selectivity; pre-incubated for 4 hours. On the procedure: The inhibitor potency of the exemplified compounds was measured in an enzyme assay that measures peptide phosphorylation using FRET measurements to detect product formation. Inhibitors were serially diluted in DMSO and a volume of 0.5 μL was transferred to the wells of a 384-well plate.
Sequence of FGFR3 enzyme (P22607 23-806): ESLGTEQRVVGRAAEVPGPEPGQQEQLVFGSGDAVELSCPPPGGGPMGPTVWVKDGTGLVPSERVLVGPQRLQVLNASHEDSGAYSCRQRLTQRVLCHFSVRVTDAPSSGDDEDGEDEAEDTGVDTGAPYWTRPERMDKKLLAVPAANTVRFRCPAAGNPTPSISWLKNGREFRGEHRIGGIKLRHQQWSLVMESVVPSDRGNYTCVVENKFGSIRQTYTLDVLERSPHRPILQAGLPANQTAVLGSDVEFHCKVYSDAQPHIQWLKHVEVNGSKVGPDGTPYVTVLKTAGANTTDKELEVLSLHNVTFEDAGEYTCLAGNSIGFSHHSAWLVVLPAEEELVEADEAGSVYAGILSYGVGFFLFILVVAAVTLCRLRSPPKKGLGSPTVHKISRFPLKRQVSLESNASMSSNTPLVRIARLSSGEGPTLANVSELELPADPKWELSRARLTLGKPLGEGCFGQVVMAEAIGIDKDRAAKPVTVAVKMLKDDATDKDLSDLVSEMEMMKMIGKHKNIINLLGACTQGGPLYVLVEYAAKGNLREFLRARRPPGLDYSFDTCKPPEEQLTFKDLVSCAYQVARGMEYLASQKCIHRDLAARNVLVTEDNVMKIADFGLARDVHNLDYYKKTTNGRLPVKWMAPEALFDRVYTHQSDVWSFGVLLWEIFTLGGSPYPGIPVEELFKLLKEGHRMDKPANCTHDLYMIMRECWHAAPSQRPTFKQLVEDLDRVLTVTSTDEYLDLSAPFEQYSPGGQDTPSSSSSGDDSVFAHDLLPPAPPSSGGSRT
GraphPad prism3 was used to analyze the data.
For the compound `COc1cc(OC)c(F)c(N2Cc3cnc(-c4cn(C)nc4C)cc3N(Cc3nnc(C)o3)C2=O)c1F` [Example 46, 3-(2,6-difluoro-3,5-dimethoxyphenyl)-7-(1,3-dimethyl-1H-pyrazol-4-yl)-1-[(5-methyl-1,3,4-oxadiazol-2-yl)methyl]-3,4-dihydropyrido[4,3-d]pyrimidin-2(1H)-one], the FGFR1/FGFR3 is reported as greater than 10 and the FGFR4/FGFR3 was greater than 10.

Take `COc1cc(OC)c(F)c(N2Cc3cnc(-c4cn(C)nc4C)cc3N(Cc3cnn(C)c3C)C2=O)c1F` [Example 48, 3-(2,6-difluoro-3,5-dimethoxyphenyl)-7-(1,3-dimethyl-1H-pyrazol-4-yl)-1-[(1,5-dimethyl-1H-pyrazol-4-yl)methyl]-3,4-dihydropyrido[4,3-d]pyrimidin-2(1H)-one]: the FGFR1/FGFR3 was greater than 10 and the FGFR4/FGFR3 is given as greater than 10.

Take `CCN1C(=O)N(c2c(F)c(OC)cc(OC)c2F)Cc2cnc(-c3cn(CCN4CCOCC4)nc3C)cc21` [Example 49, 3-(2,6-difluoro-3,5-dimethoxyphenyl)-1-ethyl-7-(3-methyl-1-(2-morpholinoethyl)-1H-pyrazol-4-yl)-3,4-dihydropyrido[4,3-d]pyrimidin-2(1H)-one]: the FGFR1/FGFR3 is greater than 5 and the FGFR4/FGFR3 was greater than 1.

With `CCN1C(=O)N(c2c(F)c(OC)cc(OC)c2F)Cc2cnc(-c3cn(CC(=O)N4CCOCC4)nc3C)cc21` [Example 51, 3-(2,6-difluoro-3,5-dimethoxyphenyl)-1-ethyl-7-(3-methyl-1-(2-morpholino-2-oxoethyl)-1H-pyrazol-4-yl)-3,4-dihydropyrido[4,3-d]pyrimidin-2(1H)-one], the FGFR1/FGFR3 is listed as greater than 1 and the FGFR4/FGFR3 is listed as greater than 1.

With `COc1cc(OC)c(F)c(N2Cc3cnc(-c4cn(CCN5CCOCC5)nc4C)cc3C3(CC3)C2=O)c1F` [Example 52, 2′-(2,6-difluoro-3,5-dimethoxyphenyl)-6′-(3-methyl-1-(2-morpholinoethyl)-1H-pyrazol-4-yl)-1′H-spiro[cyclopropane-1,4′-[2,7]naphthyridin]-3′(2′H)-one], the FGFR1/FGFR3 is listed as greater than 10 and the FGFR4/FGFR3 is greater than 1.

For the compound `CCn1cnc(-c2cc3c(cn2)CN(c2c(F)c(OC)cc(OC)c2F)C(=O)C32CC2)c1` [Example 53, 2′-(2,6-difluoro-3,5-dimethoxyphenyl)-6′-(1-ethyl-1H-imidazol-4-yl)-1′H-spiro[cyclopropane-1,4′-[2,7]naphthyridin]-3′(2′H)-one], the FGFR1/FGFR3 was greater than 5 and the FGFR4/FGFR3 was greater than 5.

Take `COc1cc(OC)c(F)c(N2Cc3cnc(-c4cn(C5CCS(=O)(=O)C5)nc4C)cc3C3(CC3)C2=O)c1F` (stereo not shown) [Example 54, 2′-(2,6-difluoro-3,5-dimethoxyphenyl)-6′-[1-(1,1-dioxidotetrahydro-3-thienyl)-3-methyl-1H-pyrazol-4-yl]-1′,2′-dihydro-3′H-spiro[cyclopropane-1,4′-[2,7]naphthyridin]-3′-one]: the FGFR1/FGFR3 is recorded as greater than 5 and the FGFR4/FGFR3 is reported as greater than 1.

On to `COc1cc(OC)c(F)c(N2Cc3cnc(-c4cnn(C5(CC#N)CN(C(C)=O)C5)c4)cc3C3(CC3)C2=O)c1F` [Example 56, 2-(1-acetyl-3-(4-(2′-(2,6-difluoro-3,5-dimethoxyphenyl)-3′-oxo-2′,3′-dihydro-1′H-spiro[cyclopropane-1,4′-[2,7]naphthyridine]-6′-yl)-1H-pyrazol-1-yl)azetidin-3-yl)acetonitrile], for which the FGFR1/FGFR3 is listed as greater than 5 and the FGFR4/FGFR3 is greater than 1.

On to `COc1cc(OC)c(F)c(N2Cc3cnc(-c4cn(C)nc4C)cc3N(c3ccnnc3)C2=O)c1F` [Example 57, 3-(2,6-difluoro-3,5-dimethoxyphenyl)-7-(1,3-dimethyl-1H-pyrazol-4-yl)-1-(pyridazin-4-yl)-3,4-dihydropyrido[4,3-d]pyrimidin-2(1H)-one], for which the FGFR1/FGFR3 is recorded as greater than 10 and the FGFR4/FGFR3 is greater than 10.

Regarding `COc1cc(CN2C(=O)N(c3c(F)c(OC)cc(OC)c3F)Cc3cnc(-c4cn(C)nc4C)cc32)ccn1` [Example 58, 3-(2,6-difluoro-3,5-dimethoxyphenyl)-7-(1,3-dimethyl-1H-pyrazol-4-yl)-1-((2-methoxypyridin-4-yl)methyl)-3,4-dihydropyrido[4,3-d]pyrimidin-2(1H)-one], the FGFR1/FGFR3 was greater than 10 and the FGFR4/FGFR3 is greater than 10.

Regarding `COc1ccc(CN2C(=O)N(c3c(F)c(OC)cc(OC)c3F)Cc3cnc(-c4cn(C)nc4C)cc32)cn1` [Example 59, 3-(2,6-difluoro-3,5-dimethoxyphenyl)-7-(1,3-dimethyl-1H-pyrazol-4-yl)-1-((6-methoxypyridin-3-yl)methyl)-3,4-dihydropyrido[4,3-d]pyrimidin-2(1H)-one], the FGFR1/FGFR3 is greater than 10 and the FGFR4/FGFR3 is recorded as greater than 10.

On to `COc1cc(OC)c(F)c(N2Cc3cnc(-c4cn(C)nc4C)cc3N(c3cncnc3)C2=O)c1F` [Example 61, 3-(2,6-difluoro-3,5-dimethoxyphenyl)-7-(1,3-dimethyl-1H-pyrazol-4-yl)-1-(pyrimidin-5-yl)-3,4-dihydropyrido[4,3-d]pyrimidin-2(1H)-one], for which the FGFR1/FGFR3 was greater than 10 and the FGFR4/FGFR3 was greater than 5.

With `CNC(=O)c1ccc(CN2C(=O)N(c3c(F)c(OC)cc(OC)c3F)Cc3cnc(-c4cn(C)nc4C)cc32)cc1` [Example 62, 4-((3-(2,6-difluoro-3,5-dimethoxyphenyl)-7-(1,3-dimethyl-1H-pyrazol-4-yl)-2-oxo-3,4-dihydropyrido[4,3-d]pyrimidin-1(2H)-yl)methyl)-N-methylbenzamide], the FGFR1/FGFR3 is recorded as greater than 10 and the FGFR4/FGFR3 is reported as greater than 5.

On to `COc1cc(OC)c(F)c(N2Cc3cnc(-c4cn(C)nc4C)cc3N(c3ccc4ccncc4c3)C2=O)c1F` [Example 63, 3-(2,6-difluoro-3,5-dimethoxyphenyl)-7-(1,3-dimethyl-1H-pyrazol-4-yl)-1-(isoquinolin-7-yl)-3,4-dihydropyrido[4,3-d]pyrimidin-2(1H)-one], for which the FGFR1/FGFR3 was greater than 10 and the FGFR4/FGFR3 is given as greater than 5.

Take `CCc1cc(CN2C(=O)N(c3c(F)c(OC)cc(OC)c3F)Cc3cnc(-c4cn(C)nc4C)cc32)no1` [Example 64, 3-(2,6-difluoro-3,5-dimethoxyphenyl)-7-(1,3-dimethyl-1H-pyrazol-4-yl)-1-((5-ethylisoxazol-3-yl)methyl)-3,4-dihydropyrido[4,3-d]pyrimidin-2(1H)-one]: the FGFR1/FGFR3 is recorded as greater than 10 and the FGFR4/FGFR3 is on record as greater than 10.

For the compound `COc1cc(OC)c(F)c(N2Cc3cnc(-c4cn(C)nc4C)cc3N(Cc3ccncn3)C2=O)c1F` [Example 65, 3-(2,6-difluoro-3,5-dimethoxyphenyl)-7-(1,3-dimethyl-1H-pyrazol-4-yl)-1-(pyrimidin-4-ylmethyl)-3,4-dihydropyrido[4,3-d]pyrimidin-2(1H)-one], the FGFR1/FGFR3 is listed as greater than 5 and the FGFR4/FGFR3 is greater than 10.

As to `COc1cc(OC)c(F)c(N2Cc3cnc(-c4cn(C)nc4C)cc3N(c3ccc(F)c(C#N)c3)C2=O)c1F` [Example 66, 5-(3-(2,6-difluoro-3,5-dimethoxyphenyl)-7-(1,3-dimethyl-1H-pyrazol-4-yl)-2-oxo-3,4-dihydropyrido[4,3-d]pyrimidin-1(2H)-yl)-2-fluorobenzonitrile], the FGFR1/FGFR3 is recorded as greater than 5 and the FGFR4/FGFR3 is given as greater than 5.
